Reference: ChEMBL document CHEMBL3507680, “University of Dundee, Gates Library screen for HepG2 cell viability”

Assay: Human HepG2 cell viability assay in 384 well format
Type: toxicity, cell-based
Design: dose 125 nL, time 70.5 hour; cytotoxicity at 70.5 h: concentration not given beside the values
Conditions: HepG2 cells, read-out: Inhibition

| SMILES | cytotoxicity at 70.5 h [%] |
| --- | --- |
| CCN1CCC(CNS(=O)(=O)N2CCc3ccccc3C2)C1 (configuration not stated) | 6.73 |
| CC(C)c1noc(CN(Cc2cccnc2)C2CN3CCC2CC3)n1 (configuration not stated) | 52.5 |
| Cc1ccc2cc(C3(O)CCN(C(=O)CSC(C)C)CC3)ccc2n1 | -6 |
| O=C(O)C1(n2cccn2)CCN(Cc2nc(-c3ccccc3)no2)CC1 | -9.66 |
| COc1cccc(CC(=O)N2CCc3ncnc(NCCO)c3CC2)c1 | -9.99 |
| CNS(=O)(=O)CCn1cc(-c2ccc(NC(C)=O)cc2)nn1 | 3.8 |
| O=C(N[C@H]1CN(C2CCOCC2)C[C@@H]1C1CC1)c1cc(O)no1 | -7.33 |
| COc1nccc(N2CC[C@H](N3CCOCC3)[C@H](CCCO)C2)c1C#N | -7.48 |
| COCCN1CC2(CCCN(C(=O)CCCc3cccs3)C2)CCC1=O (configuration not stated) | 9.49 |
| Cc1ccccc1-n1ncc(C(C)N)c1C (configuration not stated) | 26.7 |
| CC(=O)Nc1ccc2nc(-c3nccn3CCCN(C)C)ccc2c1 | -8.35 |
| OCC1CCN(C[C@@H]2CN(C3Cc4ccccc4C3)C[C@@H]2CO)CC1 | -4.9 |
| Cc1ccc(OCC(=O)N2CCOCC(O)(CN3CCCC3)C2)cc1C (configuration not stated) | 27.8 |
| CCc1cnc(C)nc1N1CCN(Cc2ccc(-c3cc[nH]n3)o2)CC1 | 9.84 |
| Cc1c(-c2nnc(SCC(=O)O)n2C(C)c2ccccc2)cnn1C (configuration not stated) | -12.3 |
| CCc1cc(NCCC(F)(F)F)nc(N2CCOCC2)n1 | -7.87 |
| C=C(C)COc1cccc(C(=O)N2CCC(O)(c3ccccc3)CC2)c1 | 7.64 |
| Cc1ccccc1N1CC(C)N(Cc2ccc(C)c(F)c2F)CC1=O (configuration not stated) | 5.81 |
| CC(C)(C(=O)NCC1CCN(Cc2ccccn2)C1)c1ccccc1 (configuration not stated) | 18.1 |
| CCc1ccc(C(=O)N2CC[C@](C)(O)C(C)(C)C2)[nH]1 | -3.24 |
| O=C(C1CCCO1)N1CCC(Cn2cc(C3CCCC3)nn2)CC1 (configuration not stated) | 2.36 |
| O=C(CCn1cncn1)N1CCCC(CO)(CCCc2ccccc2)C1 (configuration not stated) | 15.8 |
| CC(=O)N[C@@H]1CN(Cc2ccccc2-n2nc(C)cc2C)C[C@H]1C(C)C | -7.15 |

| SMILES | cytotoxicity at 70.5 h [%] |
| --- | --- |
| Cc1ccccc1CC(=O)N1CCCn2cncc2C1 | -9.13 |
| Cc1cc(NC2CCCN(Cc3ccc(F)cc3)C2)n2nc(C)cc2n1 (configuration not stated) | -0.0493 |
| Cc1[nH]c2ccc(Cl)cc2c1CCNc1ncnc2c1CCNC2 | -6.2 |
| CCCN1CCC=C(C2c3nc[nH]c3CCN2C(=O)c2ccco2)C1 (configuration not stated) | 22.4 |
| O=C(Cn1[nH]c2ccccc2c1=O)N1CCCC(CC2CC2)(C(=O)O)C1 (configuration not stated) | -7.99 |
| CNC(=O)c1ccnc(CC2COc3c(cccc3OC)C2)c1 (configuration not stated) | -25.4 |
| CCNc1ncc(CN(Cc2ccccc2)CC(C)CO)cn1 (configuration not stated) | -4.08 |
| CC(C)Nc1cc(N2CCN(Cc3ccccc3)C(CCO)C2)ncn1 (configuration not stated) | -1.73 |
| Cc1nc(O)cc(C2CCN(C(=O)C(C)Cn3nc(C)nc3C)CC2)n1 (configuration not stated) | -4.5 |
| C[C@@H](O)[C@H](NC(=O)c1csc2nc(-c3ccccc3F)cn12)C(N)=O | 2.4 |
| CCC(CO)N(Cc1ccccn1)Cc1ccc(-c2ccn[nH]2)s1 (configuration not stated) | -14 |
| CNC(=O)C1CCN(c2ncc3c(n2)CCN3c2ccccc2)C1 (configuration not stated) | -4.33 |
| Cc1nc2c(c(N3C[C@@H](C)[C@@](C)(O)C3)n1)CCC2 | 22.5 |
| CC(C)[C@@H]1CN(c2ccc(F)cn2)C[C@H]1NS(C)(=O)=O | 12.1 |
| CN1CCC(N(C)C[C@H]2CC[C@@H](Cc3cccc(O)c3)O2)CC1 | 43.7 |
| COCCC1(C(=O)O)CCCN(CCOCc2ccccc2)C1 (configuration not stated) | -3.38 |
| Cc1cc2c(N3CCCC(OCc4cccnc4)C3)ncnc2s1 (configuration not stated) | -9.75 |
| Nc1nc(NCCO)cc(N2CCc3c([nH]c4ccccc34)C2)n1 | -7.97 |
| CC(C)c1cc(NCC(O)c2ccncc2)n2nccc2n1 (configuration not stated) | 14.4 |
| Cc1cc(C)n(Cc2cc(C(=O)N3CCCC3c3ccccn3)n[nH]2)n1 (configuration not stated) | -17.2 |
| Cc1ccc(OCC(O)CNC(=O)C2(c3ccc(F)cc3)CC2)cc1 (configuration not stated) | -7.12 |
| Cc1c(C(=O)N2CCN(C)[C@@H]3CS(=O)(=O)C[C@@H]32)[nH]c2ccc(F)cc12 | -1.69 |
| CCCN1CCCC2(CCN(Cc3cncn3C3CCCC3)C2)C1=O (configuration not stated) | -8.03 |

| SMILES | cytotoxicity at 70.5 h [%] |
| --- | --- |
| Cc1nc2c(c(N3CCCC(OCc4ccccn4)C3)n1)CCNCC2 (configuration not stated) | -14.9 |
| CCSCCC(=O)N1CCc2[nH]nc(COc3ccccc3)c2C1 | 23.8 |
| CCn1cc(CN(C)C(=O)C(c2ccccc2C)N(C)C)cn1 (configuration not stated) | -1.5 |
| COCC(=O)N1CCC(Oc2cccc(C)c2)CC1 | -16 |
| CN(CCCO)c1nc(-c2ccc(C(N)=O)cc2)nc2c1CCNC2 | -13.3 |
| CCc1csc(CNc2cc(C)nc(-c3cccnc3)n2)n1 | -7.79 |
| O=C(CCn1ccccc1=O)N1CCN(Cc2cccc(Cl)c2)CC1 | -12.6 |
| O=C(NC1CCCCC1)N1CCC(n2cc(-c3ccccn3)nn2)CC1 | -6.7 |
| CC1=CCN(S(=O)(=O)c2cccc(C(=O)N3CCCN(C)CC3)c2)CC1 | -10.6 |
| CCn1c(N)nc2cc(C(=O)NCCc3nnc(C)s3)cnc21 | -24.8 |
| CC(=O)N1CCC(N2CCOC(CC3CCCCC3)C2)CC1 (configuration not stated) | -4.68 |
| CN(C)c1nc2c(c(N3CCc4ccccc4C3)n1)CCNC2 | 0.802 |
| C=C(C)COc1ccccc1CNCCc1c[nH]cn1 | 2.66 |
| O=C(NCCN1CCc2ccccc21)c1cc(-c2ccc(O)cc2)n[nH]1 | 46.5 |
| COc1ccc(CC2(CO)CCN(c3cc(C#N)ccn3)CC2)cc1 | -3.42 |
| CCc1noc(CN(CC)C(=O)c2ccc3ncsc3c2)n1 | 4.54 |
| C[C@@H]1CN(C(=O)c2ccc(=O)[nH]c2)CC[C@@]1(O)C1CCOCC1 | 1.36 |
| CCOCCNc1nc(-c2ccncc2)nc2c1CCNCC2 | -4.23 |
| COc1cccc(Cn2ncc(N(C)CCc3ccccc3)cc2=O)c1 | -6.35 |
| Cc1oncc1S(=O)(=O)N1CCCC(C)(Cc2ccc3c(c2)OCO3)C1 (configuration not stated) | 14.3 |
| CC(C)CCC1=NC2(CCN(C(=O)CN3CCCC3=O)CC2)C(=O)N1 | -5.52 |
| O=S(=O)(CC1CC1)c1ncc(CN2CCSCC2)n1CC1CCCO1 (configuration not stated) | -6.13 |
| CCSC(C)c1nc(-c2ccc(C)nn2)no1 (configuration not stated) | 4.73 |

| SMILES | cytotoxicity at 70.5 h [%] |
| --- | --- |
| CN(C)c1nc(NCCCN2CCc3ccccc32)ncc1F | 38.5 |
| CN(Cc1nc(Cc2cccc(C(F)(F)F)c2)no1)C1CCOCC1 | -5.63 |
| Cc1cc(C)nc(N2CCC(c3nnc(CN(C)C)n3C3CC3)CC2)n1 | -5.18 |
| CCOc1cc2c(cc1CN1CCC3(CCCNC3=O)C1)CCC2 (configuration not stated) | 30 |
| CCCc1cc(NCc2ccc(CO)cc2)n2nccc2n1 | 1.98 |
| CCc1c(C)nn(CCN2CC3(CCOC3)CCC2=O)c1C (configuration not stated) | -6.21 |
| CCOC(=O)C1CCCN(Cc2c[nH]nc2-c2cc3ccccc3o2)C1 (configuration not stated) | 18.3 |
| CCN(C)S(=O)(=O)N1CCCC(CO)(CC=C(C)C)C1 (configuration not stated) | -2.99 |
| Cc1noc(-c2ccc(N3CCC(C(=O)N4CCCC4)CC3)nc2)n1 | -1.82 |
| O=C1CCCN1CCCC(=O)N1CCCCC1c1ccc(F)cc1 (configuration not stated) | 2.07 |
| CN1CCN(Cc2noc(-c3cc(-c4ccc(F)cc4)n[nH]3)n2)CC1 | 31.6 |
| CCc1cnc(C)nc1N1CCS(=O)(=O)CC1 | -7.02 |
| O=C(c1ccc[nH]1)N1CCc2cc(S(=O)(=O)N3CCOCC3)ccc2C1 | 50.8 |
| Cc1ccc(C2(O)CCN(C(=O)c3sccc3S(N)(=O)=O)CC2)nc1 | -4.05 |
| CCn1c(C)nnc1SCCNC(=O)c1cccc2ccnn12 | 14.1 |
| O=C(c1cnn[nH]1)N(Cc1ccncc1)CC1CCCO1 (configuration not stated) | -0.844 |
| O=c1[nH]c(-c2ccc(Cl)cc2)nc2c1CCNC2 | 12.1 |
| O=C(C1NCCc2[nH]cnc21)N1CCC2(CC1)CNc1ccccc12 (configuration not stated) | -11.9 |
| CCCC(=O)Nc1cc2c(cc1OC)NC(=O)CC2c1ccc(CC)o1 (configuration not stated) | 22.1 |
| CC(C)c1ccc(CN2CCC(CNS(=O)(=O)C3CC3)C2)cc1 (configuration not stated) | -3.87 |
| COc1cccc2c1OCC(CNC(=O)CN(C)C1CCCC1)C2 (configuration not stated) | 6.99 |
| CN(Cc1nc(Cc2ccccc2F)no1)CC1Cc2ccccc2O1 (configuration not stated) | 8.45 |
| Cn1cc(CN(CC2(O)CNCCOC2)C2CCCCC2)cn1 (configuration not stated) | -8.06 |

| SMILES | cytotoxicity at 70.5 h [%] |
| --- | --- |
| CN(CC1CCN(c2ccccc2)C1)c1ccc(Cn2ccnc2)cn1 (configuration not stated) | -13.6 |
| Cc1ccn2cc(C(=O)N3CCCC(Cn4cc(CO)nn4)C3)nc2c1 (configuration not stated) | 17.5 |
| CCC1(O)CCCN(c2nc(C(C)(C)C)nc3c2cnn3C)C1 (configuration not stated) | -9.12 |
| COc1cccc(N2CCN(C(=O)C(OC)c3ccccc3)CC2=O)c1 (configuration not stated) | -7.1 |
| CN(Cc1ccccc1)C(=O)CCN1CCC2(CC1)[C@H](O)C[C@@H]2O | -8.64 |
| CCCc1nnc(NCCCn2nc(C)c(Cl)c2C)o1 | -7.76 |
| CCn1nc(C)c(CN2CCCC(c3ccc(C(=O)O)cc3)C2)c1C (configuration not stated) | 24.4 |
| N[C@H]1CN(C(=O)c2cnc3cc(Cl)ccc3c2O)C[C@@H]1C1CC1 | 5.93 |
| CC(CN1CCC2(CC1)N=C(c1cccnc1)NC2=O)c1ccccc1 (configuration not stated) | -7.3 |
| COC[C@@]12CC[C@@H](N3CCOCC3)C[C@H]1CCN(c1cc(C)ccn1)C2 | -1.61 |
| Cc1cccnc1CC(C)N(C)Cc1cccs1 (configuration not stated) | -13.2 |
| Cn1ccnc1-c1ccc(NCC2COCCO2)nn1 (configuration not stated) | -5.53 |
| CN1CCN(CCC(F)(F)C(F)F)CC12CCNC(=O)CC2 (configuration not stated) | 4.17 |
| NC1(C(=O)NCCC2CN(Cc3ccco3)CCO2)CCCC1 (configuration not stated) | 29.8 |
| Cc1cc(C)c2c(N3CCC(O)(Cn4ccnc4)CC3)ncnc2n1 | -0.18 |
| O=C(NCC(F)(F)F)C1CCC(=O)N(C2CCCC2)C1 (configuration not stated) | -3.8 |
| CNc1ncc(CN(C)C(=O)[C@@]23CNC[C@@H]2CN(C2CCCC2)C3)cn1 | -4.91 |
| COc1ccc(F)cc1C(=O)C1CCCN(Cc2ccc(C)s2)C1 (configuration not stated) | -12.9 |
| O=C(NCCN1CCOC1=O)c1ccc2sccc2c1 | -4.67 |
| CN1CCCc2c1nc1c(c2N)CCCC1 | 23 |
